The text below walks through data of patent US20220193072A1, “METHODS OF TREATING BREAST CANCER WITH TETRAHYDRONAPHTHALENE DERIVATIVES AS ESTROGEN RECEPTOR DEGRADER” (Arvinas Operations, Inc., priority 2020, published 2022).

The subject of one experiment is MCF7 xenograft. Briefly: MCF7 orthotopic xenograft, combination with CDK4/6 inhibitor. The format is in vivo, NOD/SCID mice.
The next experiment has as its target T1, ERα (ESR1 Y537S) (Homo sapiens, UniProt P03372, Y537S).
T1 construct: a hormone-independent patient-derived xenograft model; from tissue; host or cells: ESR1 (Y537S) patient-derived xenograft tumour grown in mice
T1 sequence (P03372 1-595 Y537S): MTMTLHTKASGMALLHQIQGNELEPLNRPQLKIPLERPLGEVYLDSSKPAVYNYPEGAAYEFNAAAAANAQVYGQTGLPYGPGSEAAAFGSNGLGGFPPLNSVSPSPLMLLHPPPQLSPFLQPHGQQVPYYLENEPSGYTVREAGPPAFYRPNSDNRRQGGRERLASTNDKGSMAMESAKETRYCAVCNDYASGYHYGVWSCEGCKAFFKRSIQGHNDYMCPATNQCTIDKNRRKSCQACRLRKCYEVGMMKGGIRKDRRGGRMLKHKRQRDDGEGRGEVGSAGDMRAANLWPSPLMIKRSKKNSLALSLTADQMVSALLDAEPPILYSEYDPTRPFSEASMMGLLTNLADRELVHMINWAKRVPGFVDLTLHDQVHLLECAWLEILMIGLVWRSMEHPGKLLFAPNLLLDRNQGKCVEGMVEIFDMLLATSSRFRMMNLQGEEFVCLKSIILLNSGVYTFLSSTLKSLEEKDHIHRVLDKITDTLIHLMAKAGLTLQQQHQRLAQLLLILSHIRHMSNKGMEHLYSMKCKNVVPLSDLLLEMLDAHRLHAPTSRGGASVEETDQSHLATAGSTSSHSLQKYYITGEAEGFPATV
Kind of experiment: Tumor ERα levels in ESR1 (Y537S) PDX model. To be noted: ESR1 (Y537S) PDX, fulvestrant 200 mg/kg SC twice/week, 2 weeks. The format is in vivo.

The test system of the next experiment is ESR1 (Y537S) PDX. Briefly: ESR1 (Y537S) PDX model tumor growth inhibition. Format: in vivo. To be noted: ESR1 (Y537S) PDX, fulvestrant 200 mg/kg SC twice/week, 2 weeks.
The next experiment addresses T2, ER (Homo sapiens, UniProt P03372).
T2 sequence (P03372 1-595): T1 sequence (P03372 1-595 Y537S) with S537Y
To be noted: after 6 months of fulvestrant treatment; cited from earlier work.

For experiment [1] the following is noted: cited from earlier work; for progression free survival (PFS): minimum follow-up 18 months.
Another experiment addresses T3, ERα (Homo sapiens, UniProt P03372).
T3 construct: robustly degrades ER in ER-positive breast cancer cell lines; endogenous in cells; host or cells: MCF7, T47D (cell culture); MCF7 and tamoxifen-resistant MCF7 xenograft tumours in mice
T3 sequence (P03372 1-595): T1 sequence (P03372 1-595 Y537S) with S537Y
Kind of experiment: In vivo ERα degradation in MCF7 xenograft tumors (immunoblot). On the set-up: species or system NOD/SCID mice. To be noted: MCF7/estradiol model, fulvestrant 200 mg/kg. As for the experimental part:
Approximately 18 hours after the final administration, mice were sacrificed, and MCF7 xenografts were harvested and lysed to determine ER levels by immunoblotting. […] Diet was supplemented with peanut butter to help maintain body weights.
Species: NOD/SCID female mice (Charles River, 6-7 weeks old upon arrival).
Animal handling: Axial mammary fat pad implantation of 5×10^6 MCF7 cells/200 per mouse (17β-estradiol 0.36 mg 90-day pellet implanted day before).
Dosing: Oral (gavage), once a day (QD) for 3 days (QD×3). Vehicle: 2% Tween80/PEG400 (‘PEG/Tween’).
Sampling: Terminal sacrifice was ˜18 hrs after last dose; tumors were harvested, divided and flash frozen. ERα levels were determined by immunoblotting.
Cell Lysis: flash frozen tumors were removed from −80° C. storage and placed on dry ice. RIPA lysis buffer and Halt protease inhibitors were used at 400 μl per tumor sample. A steel ball (5 mm) was placed in each sample for tissue disruption. Samples were lysed with TissueLyzer at 24 Hz for 4 minutes. The homogenization was stopped half way through the process and the block flipped over for the duration of the process. Steel beads were pulled out of the tubes and the lysates were spun down at 21,000×g for 15 minutes at 4° C. Lysates were then measured for total protein concentration by BCA (per manufacturer's protocol).
Detection of proteins by immunoblot: lysates were mixed with sample buffer and reducing agent (per manufacturer's protocol). Samples were denatured at 95° C. for 5 minutes in thermal cycler. Samples were cooled and spun down (5000×g; 1 minute) prior to loading on gel. Gels were loaded with 10 μg total protein per lane. Samples were loaded on 4-15% Criterion Tris/Glycine gels and run for 25 minutes at 250 constant volts in 1×Tris/Glycine/SDS buffer. Protein was transferred from gels to nitrocellulose with Bio-Rad Turbo on default setting. All blots were rinsed with distilled water and blocked for 1 hour at RT in 5% BSA in TBS-T (TBS with 0.1% Tween) on rocker. The blots were cut so that beta-actin and ERα can be detected from the same lane/sample.
Blots were incubated with primary antibody in 5% BSA in TBST (0.1%) overnight at 4° C. on rocker:
Blot was washed with TBST (0.1%) three times for 5 minutes on rocker at RT. Secondary antibody was added, and blots incubated at RT on rocker for 1 hour (1:18,000 anti-rabbit-HRP in TBS-T). Blots were washed 3 times in TBST (0.1%) for 5 minutes at RT on the rocker. Signal was developed with Pierce WestFemto maximum sensitivity substrate for 5 minutes and blots imaged on BioRad ChemiDoc.
Sampling: Tumors were measured twice weekly. Terminal sacrifice was ˜18 hr after last dose; tumors were harvested, divided, and flash frozen. ERα levels were determined by immunoblotting.
At study termination, the tumors were removed from the mice, and ERα levels were determined by immunoblotting the tumor homogenates.
Sampling: tumors were measured twice weekly. Terminal sacrifice was ˜18 hr after last dose; tumors were harvested, divided, and flash frozen. ERα levels were determined by immunoblotting.

Changes are numbered by the printed parent chain. Where two headings read alike, the source gives them in different places.

Take `C[C@]12CC[C@@H]3c4ccc(O)cc4C[C@@H](CCCCCCCCC[S+]([O-])CCCC(F)(F)C(F)(F)F)[C@H]3[C@@H]1CC[C@@H]2O` (stereo partly shown) [Fulvestrant]: the “Day 28 Tumor volume (mean ± SD)” value with MCF7 xenograft (fulvestrant 200 mg/kg SC) is reported as 489 ± 154 mm^3. Besides, the “TGI (% vehicle)” value with MCF7 xenograft (fulvestrant 200 mg/kg SC) is 46 % vehicle. Moreover, the “tumor growth inhibition (TGI)” value in the experiment with MCF7 xenograft (single agent 200 mg/kg subcutaneous, twice/week for 2 weeks) came out at 46%; with ESR1 (Y537S) PDX it was 62%. Further, the “reduction of tumor ERα levels” value on ERα (ESR1 Y537S) is given as 63%. The “ER baseline levels remaining” value at ER is reported as “up to 50%”. Also, the “progression free survival (PFS)” value is 5.4 months in experiment [1] (fulvestrant 250 mg) and 6.5 months in experiment [1] (fulvestrant 500 mg). The response rate is 14.6% in experiment [1] (fulvestrant 250 mg, CI 10.5-19.4%) and 13.8% in experiment [1] (fulvestrant 500 mg, 95% CI 9.7-18.8%). Also, the “overall survival (OS)” value in experiment [1] (fulvestrant 250 mg) is given as 22.8 months; in experiment [1] (fulvestrant 500 mg), 25.1 months. For the same compound, the “% ERα ↓” value on ERα was “None”.
